US20250025615A1, “NEW DIALYSIS FLUID” (GAMBRO LUNDIA AB, priority 2021, published 2025)

What was measured:
Format in all cases: cell-based, human
[1] = system: RCC4 (renal cell carcinoma); assay: Study 2: cell viability (CellTiter-Glo) in DMEM without sodium pyruvate; settings: increase in BOHB concentration (0, 4, 12 mM), no pyruvate, 3 d
Protocol: (§1) Cell lines established from human colon carcinoma (HCT15, NCI-H508 and COLO205), renal cell carcinoma (769-P, 786-O and RCC4) and glioblastoma (LN-18, A-172 and U-118 MG) were selected for the analysis. All cell lines were obtained from American Type Culture Collection (ATCC, LGC standards, UK) except for RCC4 and HCT15 that was purchased from Sigma-Aldrich (Merck, Germany). In addition, primary human renal cell carcinoma (RCC) cells isolated from patient nephrectomies were included in the study. The culture conditions were as recommended by American Type Culture Collection (ATCC) were followed, that is to grow cells in DMEM medium with the addition of 1 mM sodium pyruvate, which was also added to the RPMI-1640 medium in order to keep the conditions more similar 769-P, RCC4, LN-18, A-172, U-118 MG and the primary RCC cells were cultured in DMEM high glucose medium, while 786-O HCT15, NCI-H508 and COLO205 were cultured in RPMI-1640 medium according to the recommendations from ATCC. […]
(§2) CellTiter-Glo Luminescent cell viability assay (Promega) was used as a readout of viability.
(§3) For each cell line, optimal number of cells as determined above were seeded into 96-well plates on day 0. […] After 3d incubation in test condition medium, with daily medium changes, cell viability was determined using the CellTiter-Glo viability test. […]

A172 (glioblastoma) = assay: as above; settings: increase in BOHB concentration (0, 4, 12 mM), no pyruvate, 3 d
Protocol: as §1, §2, §3

RCC4 renal carcinoma = assay: Example 2: growth in Medium A-C with or without ketones (CellTiter-Glo); settings: nutrient restricted Medium C, FIG. 11
Protocol: To study the effect of a nutrient restricted ketogenic environment on cancer cell growth in vitro, three different cell culture media were formulated. Medium A was full RPMI1640 medium that the cell lines routinely are cultured in. Medium B was used as an approximation of the conditions found in normal human serum. The levels of glucose, glutamine, serine, glycine and arginine were adjusted to match normal physiological levels found in human serum. These nutrients were selected based on their reported use as energy source and effects on cancer cell metabolic state. Medium C was used to emulate the ketogenic nutrient restricted Cancer Dialysis condition. Here, the levels of the selected nutrients were reduced to half of the physiological levels in Medium B, and the ketone body BOHB was added. […]
All cell lines were purchased from ATCC (ATCC, LGC standards) except for RCC4 that was from Sigma-Aldrich (Merck). […] Optimal seeding density was determined for each cell line in 96-well plates cultured for 3 days in standard cell culture medium. […]
In Medium B, to mimic physiological conditions, the levels of glutamine, serine, glycine, arginine and glucose were set to the median of measured levels in human serum, based on data from the Mayo Clinic Laboratories (https://www.mayocliniclabs.com/test-catalog/Clinical+and+Interpretive/9265). […]

glioma cell line A172 = assay: Example 2: culture in Medium A-C with BOHB and/or Acac (CellTiter-Glo); settings: for growth: normoxic, combined experiment 2-6, 16 mM BOHB or 8 mM Acac added separately, FIG. 9
Protocol: (§4) The ketone bodies acetoacetate (Acac), BOHB and acetone are produced by the liver during fasting or starvation. BOHB is the major ketone body in mammals, while Acac constitutes around 20%.
(§5) Cells were maintained in RPMI-1640 medium (31870-025 GIBCO) with the addition of 10% serum, 200 mM L-glutamine and 1% penicillin-streptomycin (PEST) in humidified chambers at 37° C. and 5% CO2. For hypoxic conditions (5% O2), cells were maintained in a Galaxy 14 S CO2 incubator (Eppendorf) where N2 was used to adjust the O2 level to 5%.
(§6) Medium B and C were prepared from RPMI1640 modified medium powder without L-glutamine, glucose and amino acids (R9010-01, US Biological Life Sciences). For 1L medium, 7.4 g powder was dissolved in 900 ml sterile water without heating and 2 g sodium bicarbonate was added. Amino acids listed in Table 5 were added to the same concentration as in full RPMI1640 medium (Table 5). After all additions, the medium was sterilized by filtering through 0.22 um membranes and divided into two bottles.
(§7) To model Cancer Dialysis conditions in Medium C, the levels of these nutrients were reduced to 50% of the physiological levels. As for Medium A, 1% PEST and 10% dialyzed serum were added to Medium B and C. Sodium pyruvate, that is a common addition in cell culture medium, was not present in any of the used media.
(§8) Stock solutions of DL-β-Hydroxybutyric acid sodium salt (H6501, Sigma Aldrich) and Lithium Acetoacetate (A8509, Sigma Aldrich) were prepared in water, sterile filtered, aliquoted and stored at −20° C. Lithium Chloride (L7026, Sigma Aldrich) was used as a control for the addition of Lithium in the Li-Acac.
(§9) CellTiter-Glo Luminescent cell viability assay (Promega) was used as a readout of cell numbers according to the manufacturers' instructions. In experiments shown in FIG. 7-8, double plates were seeded and treated. One set of plates was used for collection of medium for lactate measurement (see below) and the CellTiterGlo-assay. The other set of plates was frozen at −80° C. at the end of the experiment. The frozen plates were intended for the CyQuant cell proliferation assay (Thermo Fisher) that measures the amount of DNA per well. Analysis of the amounts of cells by both CellTiterGlo and CyQuant assays would ensure that effects of the culture conditions on viability or growth rate would not be concealed by simultaneous changes in ATP-levels per cell.
(§10) Next, it was decided to also include Acac in the study and analyze the viability of cells cultured in the presence of BOHB and Acac alone or in combination in Medium A-C. The experiment was performed at 21% and 5% O2. The experiments were made with glioma cell lines A172 and U118MG.
(§11) Being a chiral molecule, BOHB exists as two enantiomers, D-and L-BOHB. D-BOHB is normally produced and metabolized in humans. The BOHB-salt used in this study contains a mixture of 50:50 of D-and L-BOHB. In order to ensure a high presence of the active D-form, the total concentration of BOHB added was increased to 16 mM, giving a level of 8 mM D-BOHB. To keep the total concentration of active ketones constant, 8 mM Acac was used, and for the combination of both ketones, the levels were adjusted to 4 mM Acac and 8 mM BOHB (containing 4 mM D-BOHB).
(§12) The Acac available for in vitro use is in the form of a lithium salt. Since lithium itself can affect the viability of cancer cells [Cohen-Harazi et al., Anticancer Res 2020; 40:3831-3837], 8 mM LiCl was used as a control for the 8 mM Acac data point and 4 mM LiCl was used as a control for the 4 mM Acac/8 mM BOHB data.

glioma cell line U118MG = assay: as above
Protocol: as §4, §5, §6, §7, §8, §9, §10, §11, §12

[2] = Medium A, normoxia and hypoxia, 16 mM BOHB alone
[3] = Medium C, 21 and 5% O2, 16 mM BOHB
[4] = Medium A, normoxia and hypoxia, 8 mM Acac compared to 8 mM LiCl control
[5] = Medium B, 21% O2, 8 mM Acac compared to 8 mM LiCl control
[6] = Medium C, 8 mM Acac alone compared to 8 mM LiCl control

SMILES	proliferation of cells (cell viability) [1]	proliferation of cells (cell viability) (A172 (glioblastoma))	increased sensitivity to high levels of ketones (RCC4 renal carcinoma)	growth inhibitory effect (glioma cell line A172; [2])	number of cells, % of the amount in Medium B without BOHB (glioma cell line A172; Medium B, hypoxia, 16 mM BOHB)	number of cells, % compared to C-medium without BOHB (glioma cell line A172; [3])	growth (glioma cell line A172; Medium C)	growth inhibitory effect (glioma cell line U118MG; [2])	number of cells, % compared to C-medium without BOHB (glioma cell line U118MG; [3])	number of cells (glioma cell line A172; [4])	number of cells (glioma cell line A172; [5])	amounts of cells (glioma cell line A172; [6])	number of cells (glioma cell line U118MG; [4])	number of cells (glioma cell line U118MG; [5])	amounts of cells (glioma cell line U118MG; [6])
CC(O)CC(=O)[O-].[Na+] (racemic) [BOHB, DL-β-Hydroxybutyric acid sodium salt]	suppresses the proliferation of cells	suppresses the proliferation of cells	not found	no growth inhibitory effect	approximately 70%	around 30%	trend of reduced growth	no growth inhibitory effect	around 30%						
CC(=O)CC(=O)[O-].[Li+] [Acac, Lithium Acetoacetate]							trend of reduced growth			did not reduce the number of cells further	reduced the number of cells significantly	did not significantly reduce the amounts of cells	did not reduce the number of cells further	reduced the number of cells significantly	did not significantly reduce the amounts of cells
